# Measurements from ChEMBL document CHEMBL1629650 (2009).
# What was measured:
# Format in all cases: functional
# [1] = system: Mycobacterium tuberculosis; assay: Antibacterial activity against HYG cassette-positive Mycobacterium tuberculosis B5402 harboring embB M306I mutant gene by modified conventional agar proportion method
# [2] = system: Mycobacterium tuberculosis; assay: Antibacterial activity against HYG cassette-positive Mycobacterium tuberculosis BAS5 harboring embB M306V mutant gene by modified conventional agar proportion method
# [3] = system: Mycobacterium tuberculosis; assay: Antibacterial activity against Mycobacterium tuberculosis B70 harboring embB ATG-ATC (M306I) mutation in embB by modified conventional agar proportion method
# [4] = system: Mycobacterium tuberculosis; assay: Antibacterial activity against HYG cassette-positive Mycobacterium tuberculosis RvAS2 harboring embB M306V mutant gene by modified conventional agar proportion method
# [5] = system: Mycobacterium tuberculosis; assay: Antibacterial activity against Mycobacterium tuberculosis Rv7 harboring embB ATG-GTG (M306V) mutation in embB by modified conventional agar proportion method
# [6] = system: Mycobacterium tuberculosis; assay: Antibacterial activity against Mycobacterium tuberculosis B56 harboring embB ATG-GTG (M306V) mutation in embB by modified conventional agar proportion method
# [7] = system: Mycobacterium tuberculosis; assay: Antibacterial activity against Mycobacterium tuberculosis Rv23 harboring embB ATG-GTG (M306V) mutation in embB by modified conventional agar proportion method
# [8] = system: Mycobacterium tuberculosis; assay: Antibacterial activity against Mycobacterium tuberculosis B51 harboring embB ATG-ACG (M306T) mutation in embB by modified conventional agar proportion method
# [9] = system: Mycobacterium tuberculosis; assay: Antibacterial activity against Mycobacterium tuberculosis B97 harboring embB ATG-ATC (M306I) mutation in embB by modified conventional agar proportion method
# [10] = system: Mycobacterium tuberculosis; assay: Antibacterial activity against HYG cassette-positive Mycobacterium tuberculosis BAS8 harboring embB M306I mutant gene by modified conventional agar proportion method
# [11] = system: Mycobacterium tuberculosis; assay: Antibacterial activity against HYG cassette-positive Mycobacterium tuberculosis Rv8102 harboring embB M306V mutant gene by modified conventional agar proportion method
# [12] = system: Mycobacterium tuberculosis; assay: Antibacterial activity against Mycobacterium tuberculosis Rv21 harboring embB GAT-TAT (D328Y) mutation in embB by modified conventional agar proportion method
# [13] = system: Mycobacterium tuberculosis; assay: Antibacterial activity against Mycobacterium tuberculosis Rv31 harboring embB GAT-TAT (D328Y) mutation in embB by modified conventional agar proportion method
# [14] = system: Mycobacterium tuberculosis; assay: Antibacterial activity against HYG cassette-positive Mycobacterium tuberculosis B5202 harboring embB M306V mutant gene by modified conventional agar proportion method
# [15] = system: Mycobacterium tuberculosis; assay: Antibacterial activity against Mycobacterium tuberculosis B79 harboring embB GGC-CGC (G324R) mutation in embB by modified conventional agar proportion method
# [16] = system: Mycobacterium tuberculosis; assay: Antibacterial activity against HYG cassette-positive Mycobacterium tuberculosis RvAS3 harboring embB M306I mutant gene by modified conventional agar proportion method
# [17] = system: Mycobacterium tuberculosis; assay: Antibacterial activity against Mycobacterium tuberculosis B52 harboring embB ATG-GTG (M306V) mutation in embB by modified conventional agar proportion method
# [18] = system: Mycobacterium tuberculosis; assay: Antibacterial activity against HYG cassette-negative EMB-resistant Mycobacterium tuberculosis B52 harboring embB M306V mutant gene by modified conventional agar proportion method
# [19] = system: Mycobacterium tuberculosis; assay: Antibacterial activity against Mycobacterium tuberculosis Rv39 harboring embB GGC-CGC (G324R) mutation in embB by modified conventional agar proportion method
# [20] = system: Mycobacterium tuberculosis; assay: Antibacterial activity against HYG cassette-negative EMB-resistant Mycobacterium tuberculosis B54 harboring embB M306I mutant gene by modified conventional agar proportion method
# [21] = system: Mycobacterium tuberculosis; assay: Antibacterial activity against Mycobacterium tuberculosis B96 harboring embB GAT-TAT (D328Y) mutation in embB by modified conventional agar proportion method
# [22] = system: Mycobacterium tuberculosis; assay: Antibacterial activity against HYG cassette-positive Mycobacterium tuberculosis BAS7 harboring embB M306I mutant gene by modified conventional agar proportion method
# [23] = system: Mycobacterium tuberculosis; assay: Antibacterial activity against HYG cassette-positive Mycobacterium tuberculosis Rv4402 harboring embB M306I mutant gene by modified conventional agar proportion method
# [24] = system: Mycobacterium tuberculosis; assay: Antibacterial activity against Mycobacterium tuberculosis B64 harboring embB ATG-GTG (M306V) mutation in embB by modified conventional agar proportion method
# [25] = system: Mycobacterium tuberculosis; assay: Antibacterial activity against HYG cassette-positive Mycobacterium tuberculosis RvAS1 harboring embB M306V mutant gene by modified conventional agar proportion method
# [26] = system: Mycobacterium tuberculosis; assay: Antibacterial activity against Mycobacterium tuberculosis B74 harboring embB GAC-GGC (D300G) mutation in embB by modified conventional agar proportion method
# [27] = system: Mycobacterium tuberculosis; assay: Antibacterial activity against Mycobacterium tuberculosis Rv44 harboring embB ATG-ATA (M306I) mutation in embB by modified conventional agar proportion method
# [28] = system: Mycobacterium tuberculosis; assay: Antibacterial activity against Mycobacterium tuberculosis B53 harboring embB GAT-TAT (D328Y) mutation in embB by modified conventional agar proportion method
# [29] = system: Mycobacterium tuberculosis; assay: Antibacterial activity against Mycobacterium tuberculosis Rv8 harboring embB ATG-GTG (M306V) mutation in embB by modified conventional agar proportion method
# [30] = system: Mycobacterium tuberculosis; assay: Antibacterial activity against HYG cassette-negative EMB-resistant Mycobacterium tuberculosis Rv8 harboring embB M306V mutant gene by modified conventional agar proportion method
# [31] = system: Mycobacterium tuberculosis; assay: Antibacterial activity against HYG cassette-negative EMB-resistant Mycobacterium tuberculosis Rv44 harboring embB M306I mutant gene by modified conventional agar proportion method
# [32] = system: Mycobacterium tuberculosis; assay: Antibacterial activity against Mycobacterium tuberculosis B99 harboring embB CGC-CAC (R321H) mutation in embB by modified conventional agar proportion method
# [33] = system: Mycobacterium tuberculosis; assay: Antibacterial activity against HYG cassette-positive Mycobacterium tuberculosis BAS6 harboring embB M306V mutant gene by modified conventional agar proportion method
# [34] = system: Mycobacterium tuberculosis; assay: Antibacterial activity against Mycobacterium tuberculosis B59 harboring embB ATG-GTG (M306V) mutation in embB by modified conventional agar proportion method
# [35] = system: Mycobacterium tuberculosis; assay: Antibacterial activity against Mycobacterium tuberculosis B84 harboring embB ATG-ATC (M306I) mutation in embB by modified conventional agar proportion method
# [36] = system: Mycobacterium tuberculosis; assay: Antibacterial activity against Mycobacterium tuberculosis Rv11 harboring embB ATG-CTG (M306L) mutation in embB by modified conventional agar proportion method
# [37] = system: Mycobacterium tuberculosis; assay: Antibacterial activity against Mycobacterium tuberculosis B55 harboring embB ATG-GTG (M306V) mutation in embB by modified conventional agar proportion method
# [38] = system: Mycobacterium tuberculosis; assay: Antibacterial activity against Mycobacterium tuberculosis B54 harboring embB ATG-ATA (M306I) mutation in embB by modified conventional agar proportion method
# [39] = system: Mycobacterium tuberculosis; assay: Antibacterial activity against Mycobacterium tuberculosis B85 harboring embB ATG-ATA (M306I) mutation in embB by modified conventional agar proportion method
# [40] = system: Mycobacterium tuberculosis; assay: Antibacterial activity against Mycobacterium tuberculosis Rv17 harboring embB ATG-GTG (M306V) mutation in embB by modified conventional agar proportion method
# [41] = system: Mycobacterium tuberculosis; assay: Antibacterial activity against Mycobacterium tuberculosis B92 harboring embB GAC-GCC (D354A) mutation in embB by modified conventional agar proportion method
# [42] = system: Mycobacterium tuberculosis; assay: Antibacterial activity against Mycobacterium tuberculosis B95 harboring embB ATG-ATA (M306I) mutation in embB by modified conventional agar proportion method
# [43] = system: Mycobacterium tuberculosis; assay: Antibacterial activity against HYG cassette-positive Mycobacterium tuberculosis RvAS4 harboring embB M306I mutant gene by modified conventional agar proportion method
# [44] = system: Mycobacterium tuberculosis; assay: Antibacterial activity against Mycobacterium tuberculosis Rv18 harboring embB ATG-GTG (M306V) mutation in embB by modified conventional agar proportion method
smiles,measurement,setting,value
CC[C@@H](CO)NCCN[C@@H](CC)CO [ETHAMBUTOL],MIC,[1],20 µg/mL
same,MIC,[2],20 µg/mL
same,MIC,[3],40 µg/mL
same,MIC,[4],20 µg/mL
same,MIC,[5],20 µg/mL
same,MIC,[6],20 µg/mL
same,MIC,[7],20 µg/mL
same,MIC,[8],20 µg/mL
same,MIC,[9],20 µg/mL
same,MIC,[10],10 µg/mL
same,MIC,[11],20 µg/mL
same,MIC,[12],20 µg/mL
same,MIC,[13],20 µg/mL
same,MIC,[14],20 µg/mL
same,MIC,[15],20 µg/mL
same,MIC,[16],10 µg/mL
same,MIC,[17],20 µg/mL
same,MIC,[18],20 µg/mL
same,MIC,[19],20 µg/mL
same,MIC,[20],20 µg/mL
same,MIC,[21],20 µg/mL
same,MIC,[22],10 µg/mL
same,MIC,[23],20 µg/mL
same,MIC,[24],20 µg/mL
same,MIC,[25],20 µg/mL
same,MIC,[26],10 µg/mL
same,MIC,[27],20 µg/mL
same,MIC,[28],20 µg/mL
same,MIC,[29],20 µg/mL
same,MIC,[30],20 µg/mL
same,MIC,[31],20 µg/mL
same,MIC,[32],10 µg/mL
same,MIC,[33],20 µg/mL
same,MIC,[34],20 µg/mL
same,MIC,[35],20 µg/mL
same,MIC,[36],20 µg/mL
same,MIC,[37],20 µg/mL
same,MIC,[38],20 µg/mL
same,MIC,[39],20 µg/mL
same,MIC,[40],20 µg/mL
same,MIC,[41],20 µg/mL
same,MIC,[42],20 µg/mL
same,MIC,[43],10 µg/mL
same,MIC,[44],20 µg/mL
